What was measured:
[1] = system: stomata of atrbohD/F mutant leaves; assay: Stomatal closing studies with whole leaves of atrbohD/F mutant; format: cell-based, Arabidopsis thaliana; conditions: 10 μM
Description: Stomatal Aperture Studies: Arabidopsis thaliana ecotypes Columbia (Col-0) and Wassilewskija (WS) were used as wild types in this study. Col-0, nia1nia2, atrbohD/F, R2-4A and WS plants were all grown on autoclaved Metro-Mix 200 soil at 22° C. under continuous light. The mutant seeds nia1nia2 nia2-5; CS 2356; Col-0 background) were obtained from Dr. N. M. Crawford (University of California at San Diego) and the mutant seeds atrbohD/F (Col-0 background) were obtained from Dr. J. M. Kwak (University of Maryland). The RNAi mutant apyrase line (R2-4A) is in WS background, so WS ecotype was used as the control wild type for these studies. […]
After treatment, photos of stomata were taken using a light microscope at 20×. Stomatal aperture width was measured using the image processing software ImageJ. Typically, photos were taken of 70 to 90 stomata per treatment of which only 50 stomata were measured for each treatment. For each treatment the ratio of closed stomata (width of 0) to open stomata was determined for all stomata imaged and this ratio was maintained in the 50 stomata that were measured for each treatment. Data shown uses apertures determined as width/length, however data in all studies also obtained as width only and generally width/length and width only data are in agreement with each other. […]

[2] = system: stomata (guard cells) in epidermal peels; assay: Stomatal aperture closure studies, epidermal peels in the light; format: cell-based, Arabidopsis thaliana; conditions: 10 μM, epidermal peels, light, 1 h
Description: Stomatal Aperture Studies: Arabidopsis thaliana ecotypes Columbia (Col-0) and Wassilewskija (WS) were used as wild types in this study. Col-0, nia1nia2, atrbohD/F, R2-4A and WS plants were all grown on autoclaved Metro-Mix 200 soil at 22° C. under continuous light. The mutant seeds nia1nia2 nia2-5; CS 2356; Col-0 background) were obtained from Dr. N. M. Crawford (University of California at San Diego) and the mutant seeds atrbohD/F (Col-0 background) were obtained from Dr. J. M. Kwak (University of Maryland). The RNAi mutant apyrase line (R2-4A) is in WS background, so WS ecotype was used as the control wild type for these studies. Leaves from 2 to 3 week old Col-0 plants, or R2-4A and WS plants treated with 4 μM estradiol for 1 week after development of mature basal leaves were used for peel and whole leaf studies. Plants were placed in the dark and watered 24 h before an study. For opening studies, plants were used immediately after 24 h dark treatment and all treatments were done in the dark except for the light treated leaves or peels, thus the control stomata are dark controls. For closure studies, plants were placed in the light 3 h before an study to induce stomatal opening and all treatments were done in the light, thus the control stomata are light controls. For peel studies, epidermal peels were made from the underside of the leaf and treatments were applied to the peels for 1 h. For whole leaf studies, leaves were removed and treatments were applied for 2 h. For each treatment, about 3 or 4 peels collected from different leaves or 3 or 4 different leaves of at least two different plants were floated with the abaxial side up in petri dishes on 3 mL of Arabidopsis leaf buffer consisting of 10 mM KCl, 25 mM MES pH 6.15 (Melotto et al., 2006) and the chemical being tested. For whole leaf studies peels were collected after the treatment.
For studies testing the effects of ATPγS, ADPγS, AMPS, RB2, and PPADS (Sigma, St. Louis, Mo., USA) 20 mM stocks were made by dissolving the compounds in de-ionized water. For studies testing the effects of apyrase inhibitors, 7.5 mg/mL of NGXT191 and of inhibitor #13 (Windsor et al., 2002) was dissolved in dimethyl sulfoxide (DMSO) and then applied at a dilution of […] for a final concentration of 0.1% DMSO. ABA (Sigma, St. Louis, Mo., USA) was dissolved in ethanol in 10 mM stocks and then applied at a dilution of 1:1000. The stocks were stored at −20° C. while not in use. The production of the anti-AtAPY1 antibodies used is described by Steinebrunner et al. (2003). The crude immune and pre-immune sera were purified using protein A-Sepharose following the protocol described by Martin (1982) with the slight modification that the buffers used were azide-free. The protein-A purified sera were both used at a 1:1000 dilution in leaf stomatal aperture studies. The concentration of the immune and pre-immune sera, determined by Bradford assay (Bio-Rad), was 10.2 μg/mL and 7.7 μg/mL, respectively.
After treatment, photos of stomata were taken using a light microscope at 20×. Stomatal aperture width was measured using the image processing software ImageJ. Typically, photos were taken of 70 to 90 stomata per treatment of which only 50 stomata were measured for each treatment. For each treatment the ratio of closed stomata (width of 0) to open stomata was determined for all stomata imaged and this ratio was maintained in the 50 stomata that were measured for each treatment. Data shown uses apertures determined as width/length, however data in all studies also obtained as width only and generally width/length and width only data are in agreement with each other. Statistical significance of the measurements for the treatments was determined using the Student's t test in Microsoft Excel.

CC1=CC(=O)CC(C)(C)[C@@]1(O)/C=C/C(C)=C\C(=O)O [ABA, abscisic acid]
effect on stomatal aperture [1]: no effect on stomatal aperture
effect on stomatal aperture [2]: induced stomatal closure
